Source: article PMC12040169 (PLOS Biology, 2025)

Assay: in vitro
Details: human, hela cells, % viability

SMILES | viability at 28.5 h, 10 µM [%] | viability at 28.5 h, 10 µM (bulk resorufin, single well) [%]
COc1cc2nc(N3CCC4(CCN(C(=O)C(c5ccccc5)C(C)C)C4)C3)nc(N)c2cc1OC (stereo not drawn) [CBK160790] | 76.3 | 
Cc1nnnn1-c1cc(NC(=O)NCCCn2ccnc2)ccc1F [CBK305349] | 92.1 | 
CSc1ccccc1C(=O)Nc1sc2c(c1C#N)CCN(C(C)=O)C2 [CBK304183] | 55.3 | 
CC1CCN(S(=O)(=O)c2cccc3c(S(=O)(=O)N4CCC(C)CC4)cccc23)CC1 [CBK262071] | 98.2 | 
CCCc1[nH]nc(O)c1CCc1ccccc1 [CBK075083] | 108 | 
COc1ccc(S(=O)(=O)Nc2ccc(C(=O)O)cc2)cc1OC [CBK034048] | 96.2 | 
Cc1c(C(=O)NCCOc2ccc(-c3ccccc3)cc2)sc2nc[nH]c(=O)c12 [CBK285805] | 92.2 | 
O=C1CC2(CCCC2)C(=O)N1CCNc1nccc(C(F)(F)F)n1 [CBK028777] | 97.4 | 
Cc1noc(C)c1S(=O)(=O)Nc1nc(=O)[nH]cc1F [CBK067569] | 103 | 
O=S(=O)(/C=C/c1ccccc1)Nc1cccc2cc[nH]c12 [CBK155788] | 82.7 | 
N#Cc1ccc(-n2cc(-c3ccc(F)cc3F)nn2)cc1 [CBK112990] | 98.3 | 
CC(=O)Nc1cccc(NS(=O)(=O)c2ccc(N3CCNCC3)c3ccccc23)c1 [CBK028702C] | 105 | 
COc1ccc(N2C(=S)N(Cc3cccs3)[C@H]3[C@@H](O)[C@H](O)C[C@@H](C(N)=O)[C@H]32)cc1 [CBK288929] | 93 | 
CCOC(=O)CCNC(=O)C1(c2ccc(OC)cc2)CC1 [CBK161490] | 87.3 | 
O=C(Nc1ccccc1)O[C@@H]1CO[C@H]2[C@@H]1OC[C@@H]2Nc1nccc(-c2cccs2)n1 [CBK289513] | 97.8 | 
COc1cc(NC(=S)NCCN2CCOCC2)c(OC)cc1Cl [CBK265888] | 101 | 
CN(C)CC(=O)N/N=C/c1ccsc1 [CBK008256C] | 110 | 
CN1Cc2nc[nH]c2C[C@H]1C(=O)NCc1ccco1 [CBK288979] | 88 | 
CCC(=O)N1CCc2cc(C(O)CN3CCCCC3)ccc21 (stereo not drawn) [CBK283111] | 98.3 | 
c1ccc2cc(-c3cc(Nc4ccc(N5CCOCC5)cc4)ncn3)ccc2c1 [CBK090929] | 94.2 | 
Nc1cc(=O)[nH]c(SCC(=O)N2CCc3ccccc32)n1 [CBK307424] | 94.4 | 

SMILES | viability at 28.5 h, 10 µM [%] | viability at 28.5 h, 10 µM (bulk resorufin, single well) [%]
CC1=CC(=O)OC1(O)c1ccc(Br)cc1 (stereo not drawn) [CBK022687] | 91.6 | 
Cc1nn(C)c2ncc(S(=O)(=O)Nc3cc(C(N)=O)ccc3Cl)cc12 [CBK306104] | 70 | 
O=C(Nc1ccc(Cn2cncn2)cc1)C1CC2C=CC1C21CC1 (stereo not drawn) [CBK281399] | 88.2 | 
COc1cc([N+](=O)[O-])ccc1NC(=S)Nc1cccc(S(=O)(=O)N2CCOCC2)c1 [CBK267042] | 96.9 | 
COc1cc(Br)cc(CN2CCN(Cc3ccccc3)CC2)c1O [CBK261880] |  | 108
Cn1cnc2cc(C(=O)N3CC(C(=O)N4CCN(c5ccccc5)CC4)C3)ccc21 [CBK285664] | 82.5 | 
O=[N+]([O-])c1ccccc1S(=O)(=O)N1CCN(S(=O)(=O)Cc2ccccc2)CC1 [CBK264230] | 96.9 | 
O=S(=O)(O)c1cccc2cccc(Nc3ccccc3)c12 [CBK013362G] | 84.8 | 
O=c1[nH]c2c(c(=O)[nH]1)[C@H]1[C@H](O)[C@H](O)C[C@H]1[C@@H](c1ccccc1)N2 [CBK303239] | 88.1 | 
Cc1cc(C)nc(-n2ncc3c2CC(c2cccs2)CC3=O)n1 (stereo not drawn) [CBK269371] | 107 | 
COCC(=O)N1CCN2C(=O)c3ccc(Cl)cc3NC(=O)[C@H]2C1 [CBK289588] | 84.6 | 
O=C(COc1ccc2ccccc2c1)Nc1ccc(CN2CCOCC2)cc1 [CBK265754] | 121 | 
COc1ccc(C(=O)CSc2nnc(-c3ccccc3)c3ccccc23)cc1OC [CBK297088] | 93.3 | 
CCOc1cccc(N2C(=O)/C(=C\c3ccc(-c4ccc(C(=O)O)c(Cl)c4)o3)C(=O)NC2=S)c1 [CBK263403] |  | 92.1
Cc1ccc(/C=C2\SC(=S)N(CCCC(=O)N3CCC(Cc4ccccc4)CC3)C2=O)cc1 [CBK264356] | 101 | 
OCCOc1cccc2cccnc12 [CBK001784] | 104 | 
CCNc1nc(=S)[nH]c2sc3c(c12)CCC(C)C3 (stereo not drawn) [CBK086242] | 89.2 | 
Cc1nn2c(=O)cc(C(=O)O)[nH]c2c1-c1ccccc1 [CBK287129] | 88.2 | 
COc1ccc(CCc2nc(C(F)(F)F)cc(=O)[nH]2)cc1 [CBK003679] | 87.3 | 
CCCC(=O)N1CCC(Cc2ccc(-c3cccc(C)c3)cc2)(C(=O)NC)CC1 [CBK285786] | 104 | 
CCn1cc(S(=O)(=O)NCc2ccc3[nH]c4c(c3c2)CCCC4)cn1 [CBK307225] | 100 | 

SMILES | viability at 28.5 h, 10 µM [%] | viability at 28.5 h, 10 µM (bulk resorufin, single well) [%]
COc1ccc([C@@]23CCN(C(=O)Nc4ccc(F)c(F)c4F)C[C@@H]2CN(C)C3)cc1OC [CBK074305T] | 106 | 
CCOc1ccc(CN(C)C(=O)Nc2cc(C)on2)cc1 [CBK306216] | 101 | 
CC(C)[C@H](CO)Nc1nccnc1-c1ccncc1 [CBK089030] | 91.9 | 
CC(=O)C1=C(O)C(=O)N(CCN2CCOCC2)C1c1cccc([N+](=O)[O-])c1 (stereo not drawn) [CBK264568] | 98 | 
Cc1csc(C(Cc2cccs2)NC(=O)C2CCC(=O)N2)n1 (stereo not drawn) [CBK285056] | 104 | 
Fc1ccc(C2CCCN(CCCOc3cccc(F)c3)C2)cc1 (stereo not drawn) [CBK016228B] | 102 | 
O=C(Nc1ccc(NC(=O)c2cc3ccccc3o2)cc1)c1ccc(-c2cccc([N+](=O)[O-])c2)o1 [CBK268579] | 86.8 | 
CC(=O)Nc1cccc(Oc2cnc(-c3ccc(OC(F)(F)F)cc3)c(N)n2)c1 [CBK145119] | 91.9 | 
CCCC1=NNC(=O)/C1=C\c1cnc[nH]1 [CBK067767] | 105 | 
FC(F)(F)c1ccc(Oc2ccc(-c3noc(-c4ccccn4)n3)cc2)nc1 [CBK270152] | 90.1 | 
COc1cc(OC)c2nc(C(F)(F)F)cc(Cl)c2c1 [CBK006518] | 83.1 | 
NCCOc1ncccc1OCc1ccccc1 [CBK036305] | 90.7 | 
Cc1ccc2nc(O)cc(C(=O)OCC(=O)c3cccc([N+](=O)[O-])c3)c2c1 [CBK265115] | 94.1 | 
O=C1NCCN(C(=O)c2[nH]nc3c2CCCCC3)C1Cc1ccccc1-c1ccc(F)cc1 (stereo not drawn) [CBK285831] | 98.1 | 
CCCCOc1ccc(Sc2nc(C)cc(C)n2)cc1 [CBK009219] | 92.1 | 
Nc1ncc(-c2cc3ccccc3s2)nc1-c1ccc(CCC(=O)O)cc1 [CBK064134] | 98.1 | 
CC(=O)Nc1cc2ccccc2nc1C1CCN(C(=O)C(C)C)CC1 [CBK285259] | 83.7 | 
Cc1cc2c(cc1Cl)C(=O)CC1(CCN(C(=O)C3CC(=O)OC3(C)C)CC1)O2 (stereo not drawn) [CBK156514] | 94.8 | 
O=C(O)CSCc1ccc(C(=O)O)o1 [CBK263267] | 107 | 
COc1ccc(Cn2ncnc2CC2CCNCC2)cc1 [CBK307071] | 83.4 | 
N#Cc1ccccc1C(=O)N(CCO)Cc1ccccc1 [CBK304844] | 89.8 | 
